Legend:
OVA-sensitized mice = test: Murine model of OVA-induced allergic diarrhea: diarrhea scores; format: in vivo, Balb/c mice
Text: Male Balb/c mice were sensitized by intraperitoneal injection of ovalbumin (OVA) together with aluminium potassium sulphate.
(§1) Briefly, following sensitization (2 intraperitoneal injections of OVA and aluminium potassium sulphate at an interval of 14 days) adult male Balb/c mice were orally challenged with OVA for 6 times (days 28, 30, 33, 35, 37, 40) resulting in transient clinical symptoms (diarrhea) and changes of immune parameters (plasma concentration of total IgE, OVA specific IgE, mouse mast cell protease 1 (MMCP-1) as well as Th2 type cytokine production of ex vivo OVA re-stimulated mesenteric lymphocytes (MLN)). Substances, to be tested, were administered either by subcutaneous injection (thymoquinone and naloxone methiodide according to the literature) or by gavage (Nigella sativa extract).

δ-hOR = δ-hOR (Homo sapiens, UniProt P41143); test: Ligand displacement from δ-opioid receptor; format: binding; conditions: 100 μM
Sequence of δ-hOR (P41143 whole entry): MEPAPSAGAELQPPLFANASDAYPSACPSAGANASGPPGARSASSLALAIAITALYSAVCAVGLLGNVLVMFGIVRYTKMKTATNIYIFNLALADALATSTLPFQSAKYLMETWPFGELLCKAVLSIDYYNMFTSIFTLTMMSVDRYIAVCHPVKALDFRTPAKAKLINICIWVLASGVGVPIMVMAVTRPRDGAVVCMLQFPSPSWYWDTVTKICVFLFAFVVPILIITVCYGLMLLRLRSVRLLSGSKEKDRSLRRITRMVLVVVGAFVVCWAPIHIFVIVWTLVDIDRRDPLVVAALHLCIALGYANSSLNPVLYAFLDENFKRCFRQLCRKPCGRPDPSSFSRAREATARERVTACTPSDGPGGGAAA

κ-hOR = κ-hOR (Homo sapiens, UniProt P41145); test: Ligand displacement from κ-opioid receptor; format: binding; conditions: 100 μM
Sequence of κ-hOR (P41145 whole entry): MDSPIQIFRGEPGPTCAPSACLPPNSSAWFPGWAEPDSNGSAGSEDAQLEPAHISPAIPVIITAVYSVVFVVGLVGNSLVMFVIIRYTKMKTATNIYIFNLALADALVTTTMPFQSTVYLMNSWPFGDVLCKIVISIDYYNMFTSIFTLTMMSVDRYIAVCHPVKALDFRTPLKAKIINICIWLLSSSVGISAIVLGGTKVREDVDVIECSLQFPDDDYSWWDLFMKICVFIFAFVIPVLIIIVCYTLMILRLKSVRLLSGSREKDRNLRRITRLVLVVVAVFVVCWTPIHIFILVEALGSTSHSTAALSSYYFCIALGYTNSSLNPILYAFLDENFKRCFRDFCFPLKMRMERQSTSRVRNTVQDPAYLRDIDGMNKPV

[1] = system: mouse mast cell protease 1 (MMCP-1); test: Murine model of OVA-induced allergic diarrhea: plasma MMCP-1; format: in vivo, Balb/c mice; conditions: thymoquinone study; 4th challenge; FIG. 2
Text: as §1
At large the MMCP-1 concentration in plasma correlates with the number of mast cells in the tissue which are known to be key players of diarrhea development in this mouse model (Brandt, E. B., et al., 2003, J. Clin. Invest 112, 1666-1677).

μ-hOR = μ-hOR (Homo sapiens, UniProt P35372); test: Ligand displacement from μ-opioid receptor; format: binding; conditions: 100 μM
Sequence of μ-hOR (P35372 whole entry): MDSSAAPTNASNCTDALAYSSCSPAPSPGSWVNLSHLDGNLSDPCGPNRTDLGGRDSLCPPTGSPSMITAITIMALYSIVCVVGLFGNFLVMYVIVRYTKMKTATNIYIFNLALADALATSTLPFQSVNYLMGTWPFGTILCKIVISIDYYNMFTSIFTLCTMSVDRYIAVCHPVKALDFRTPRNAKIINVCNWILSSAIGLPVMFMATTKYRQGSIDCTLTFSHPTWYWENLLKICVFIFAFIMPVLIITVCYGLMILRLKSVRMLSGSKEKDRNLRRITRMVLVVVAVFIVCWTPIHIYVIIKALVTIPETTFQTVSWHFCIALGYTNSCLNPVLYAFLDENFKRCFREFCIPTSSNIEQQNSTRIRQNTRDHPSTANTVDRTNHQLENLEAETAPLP

SMILES	diarrhea score (Median ±RobustSD) (OVA-sensitized mice; 3rd challenge, FIG. 3, OVA control 1±1.2)	diarrhea score (Median ±RobustSD) (OVA-sensitized mice; 4th challenge, FIG. 3, OVA control 2±3.6)	diarrhea score (Median ±RobustSD) (OVA-sensitized mice; 5th challenge, FIG. 3, OVA control 4±0)	diarrhea score (Median ±RobustSD) (OVA-sensitized mice; 6th challenge, FIG. 3, OVA control 4.5±1.2)	δ-hOR % ligand displacement (δ-hOR) [%]	κ-hOR % ligand displacement (κ-hOR) [%]	plasma MMCP-1 compared to non-treated OVA challenged controls [1]	diarrhea score (Median ±RobustSD) (OVA-sensitized mice; OVA-challenged mice treated with thymoquinone (subcutaneous), after 6th challenge, FIG. 1, OVA control 5±0)	clinical symptoms compared to non-treated mice (OVA-sensitized mice; thymoquinone 4 days prior to sensitization and during challenge period, after 6th challenge)	μ-hOR % ligand displacement (μ-hOR) [%]
C=CC[N+]1(C)CC[C@]23c4c5ccc(O)c4O[C@H]2C(=O)CC[C@@]3(O)[C@H]1C5.[I-] (stereo partly shown) [Naloxone, naloxone methiodide]	2±1.2	3.5±1.2	4±0	5±0						
CC1=CC(=O)C(C(C)C)=CC1=O [Thymoquinone, 2-Isopropyl-5-methyl-1,4-benzoquinone]					48	37	significantly lower	3±1.79	significantly improve	45

Reference: patent US20120142580A1, “OPIOID RECEPTORS STIMULATING COMPOUNDS (THYMOQUINONE, NIGELLA SATIVA) AND FOOD ALLERGY” (NESTEC S.A., priority 2009, published 2012)
